Source: patent US20230322761A1, “DEGRADATION OF BRUTON'S TYROSINE KINASE (BTK) BY CONJUGATION OF BTK INHIBITORS WITH E3 LIGASE LIGAND AND METHODS OF USE” (BEIGENE, LTD., priority 2020, published 2023)

biological target: T1, BTK (Homo sapiens, UniProt Q06187); experiment: BTK degradation in TMD-8 cells, HTRF assay after 6 h treatment; assay type: cell-based; conditions: IC50 (DC50) of BTK degradation
T1 construct: endogenous in cells; host or cells: TMD-8 cells
Protocol: TMD-8 cells are treated with compounds diluted in 0.2% DMSO, dilution is done according to the following protocol: (1) make 500× stock solution in DMSO from 1 mM by 6-fold dilution, total 8 doses were included; (2) make 2× solution in cell culture medium by transferring 0.5 μl 500× stock solution into 125 μl medium; (3) 15 μl of 2× solution is added to cells and incubate for 6 h.
After 6 h treatment, add 10 μl 4×lysis buffer to each well; seal the plate and incubate 30 min at room temperature on a plate shaker; Once the cells are lysed, 16 μL of cell lysate are transferred to a PE 384-well HTRF detection plate; 4 μL of pre-mixed HTRF antibodies are added to each well; Cover the plate with a plate sealer, spin 1000 rpm for 1 min, Incubate overnight at room temperature; Read on BMG PheraStar with HTRF protocol (337 nm-665 nm-620 nm).
The IC50 (DC50) value of a compound can be obtained by fitting the following equation
Y=Bottom+(TOP−Bottom)/(1+((IC50/X)^hillslope))
Wherein, X and Y are known values, and IC50, Hillslope, Top and Bottom are the parameters obtained by fitting with software. Y is the inhibition percentage (calculated from the equation), X is the concentration of the compound; IC50 is the concentration of the compound when the 50% inhibition is reached. The smaller the IC50 value is, the stronger the inhibitory ability of the compound is. Vice versa, the higher the IC50 value is, the weaker the ability the inhibitory ability of the compound is; Hillslope represents the slope of the fitted curve, generally around 1*; Bottom represents the minimum value of the curve obtained by data fitting, which is generally 0%±20%; Top represents the maximum value of the curve obtained by data fitting, which is generally 100%±20%. The experimental data were fitted by calculating and analyzing with Dotmatics data analysis software.

T1 sequence (Q06187 whole entry): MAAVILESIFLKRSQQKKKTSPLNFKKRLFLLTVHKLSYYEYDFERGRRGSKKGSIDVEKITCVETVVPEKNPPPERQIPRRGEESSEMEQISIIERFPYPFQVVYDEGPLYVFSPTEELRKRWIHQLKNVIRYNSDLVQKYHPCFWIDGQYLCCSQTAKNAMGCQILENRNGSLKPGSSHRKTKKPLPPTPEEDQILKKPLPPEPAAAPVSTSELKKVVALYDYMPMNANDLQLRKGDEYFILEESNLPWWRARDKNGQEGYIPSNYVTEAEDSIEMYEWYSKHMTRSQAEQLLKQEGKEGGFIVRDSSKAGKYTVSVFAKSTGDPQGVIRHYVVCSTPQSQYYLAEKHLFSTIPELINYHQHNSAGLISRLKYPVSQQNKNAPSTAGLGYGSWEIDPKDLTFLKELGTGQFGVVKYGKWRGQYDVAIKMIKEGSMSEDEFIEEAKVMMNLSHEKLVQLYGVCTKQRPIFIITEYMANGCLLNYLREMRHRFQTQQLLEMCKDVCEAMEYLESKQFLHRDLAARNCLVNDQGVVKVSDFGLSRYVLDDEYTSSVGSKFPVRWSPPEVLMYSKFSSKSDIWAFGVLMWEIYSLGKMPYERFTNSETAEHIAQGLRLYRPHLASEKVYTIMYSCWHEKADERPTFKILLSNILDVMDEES

Compound | DC50
Cc1cc(-c2n[nH]c3ncc(-c4ccc(N5CCC(COc6ccc(N7CCC(=O)NC7=O)cc6)CC5)cc4)cc23)ccc1[C@@H](C)NC(=O)c1noc(C(C)(C)C)n1 [Example 187, (R)-5-(tert-butyl)-N-(1-(4-(5-(4-(4-((4-(2,4-dioxotetrahydropyrimidin-1(2H)-yl)phenoxy)methyl)piperidin-1-yl)phenyl)-1H-pyrazolo[3,4-b]pyridin-3-yl)-2-methylphenyl)ethyl)-1,2,4-oxadiazole-3-carboxamide] | 9.56 nM
Cc1cc(-c2n[nH]c3ncc(-c4ccc(C5CCN(CCC6CCN(c7ccc(N8CCC(=O)NC8=O)c(Cl)c7)CC6)CC5)cc4)cc23)ccc1CNC(=O)c1nc(C(C)(C)C)no1 [Example 23, 3-(tert-butyl)-N-(4-(5-(4-(1-(2-(1-(3-chloro-4-(2,4-dioxotetrahydropyrimidin-1(2H)-yl)phenyl)piperidin-4-yl)ethyl)piperidin-4-yl)phenyl)-1H-pyrazolo[3,4-b]pyridin-3-yl)-2-methylbenzyl)-1,2,4-oxadiazole-5-carboxamide] | 4.04 nM
Cc1cc(-c2n[nH]c3ncc(-c4ccc(N5CCN(CCc6ccc([C@@H]7CCC(=O)NC7=O)c(F)c6)CC5)cn4)cc23)ccc1[C@@H](C)NC(=O)c1noc(C(C)(C)C)n1 [Example 182, 5-(tert-butyl)-N—((R)-1-(4-(5-(5-(4-(4-((S)-2,6-dioxopiperidin-3-yl)-3-fluorophenethyl)piperazin-1-yl)pyridin-2-yl)-1H-pyrazolo[3,4-b]pyridin-3-yl)-2-methylphenyl)ethyl)-1,2,4-oxadiazole-3-carboxamide] | 11.8 nM
CC(C)(C)c1noc(C(=O)NCc2ccc(-c3n[nH]c4ncc(-c5ccc(C6CCN(CCC7CCN(c8ccc(N9CCC(=O)NC9=O)c(F)c8)CC7)CC6)cc5)cc34)cc2F)n1 [Example 16, 3-(tert-butyl)-N-(4-(5-(4-(1-(2-(1-(4-(2,4-dioxotetrahydropyrimidin-1(2H)-yl)-3-fluorophenyl)piperidin-4-yl)ethyl)piperidin-4-yl)phenyl)-1H-pyrazolo[3,4-b]pyridin-3-yl)-2-fluorobenzyl)-1,2,4-oxadiazole-5-carboxamide] | 9.04 nM
Cc1cc(-c2n[nH]c3ncc(-c4ccc(N5CCN(CC(C)c6ccc(N7CCC(=O)NC7=O)cc6)CC5)cc4)cc23)ccc1[C@@H](C)NC(=O)c1noc(C(C)(C)C)n1 (stereo partly drawn) [Example 160, 5-(tert-butyl)-N-((1R)-1-(4-(5-(4-(4-(2-(4-(2,4-dioxotetrahydropyrimidin-1(2H)-yl)phenyl)propyl)piperazin-1-yl)phenyl)-1H-pyrazolo[3,4-b]pyridin-3-yl)-2-methylphenyl)ethyl)-1,2,4-oxadiazole-3-carboxamide] | 10.6 nM
Cc1cc(-c2n[nH]c3ncc(-c4ccc(N5CCN(CCc6ccc(C7CCC(=O)NC7=O)c(Cl)c6)CC5)cc4)cc23)ccc1CNC(=O)c1noc(C(C)(C)C)n1 (stereo not drawn) [Example 51, 5-(tert-butyl)-N-(4-(5-(4-(4-(3-chloro-4-(2,6-dioxopiperidin-3-yl)phenethyl)piperazin-1-yl)phenyl)-1H-pyrazolo[3,4-b]pyridin-3-yl)-2-methylbenzyl)-1,2,4-oxadiazole-3-carboxamide] | 3.83 nM
Cc1cc(-c2n[nH]c3ncc(-c4ccc(N5CCN(CCc6ccc(N7CCC(=O)NC7=O)cc6)CC5)cn4)cc23)ccc1[C@@H](C)NC(=O)c1noc(C(C)(C)C)n1 [Example 122, (R)-5-(tert-butyl)-N-(1-(4-(5-(5-(4-(4-(2,4-dioxotetrahydropyrimidin-1(2H)-yl)phenethyl)piperazin-1-yl)pyridin-2-yl)-1H-pyrazolo[3,4-b]pyridin-3-yl)-2-methylphenyl)ethyl)-1,2,4-oxadiazole-3-carboxamide] | 2.22 nM
Cc1cc(-c2n[nH]c3ncc(-c4ccc(N5CCN(CC6CCN(c7ccc(N8CCC(=O)NC8=O)cc7)CC6)CC5)nc4)cc23)ccc1CNC(=O)c1nc(C(C)(C)C)no1 [Example 68, 3-(tert-butyl)-N-(4-(5-(6-(4-((1-(4-(2,4-dioxotetrahydropyrimidin-1(2H)-yl)phenyl)piperidin-4-yl)methyl)piperazin-1-yl)pyridin-3-yl)-1H-pyrazolo[3,4-b]pyridin-3-yl)-2-methylbenzyl)-1,2,4-oxadiazole-5-carboxamide] | 1.47 nM
Cc1cc(-c2n[nH]c3ncc(-c4ccc(N5CC6CN(CCc7ccc(C8CCC(=O)NC8=O)c(C)n7)CC6C5)cn4)cc23)ccc1[C@@H](C)NC(=O)c1noc(C(C)(C)C)n1 (stereo partly drawn) [Example 189, 5-(tert-butyl)-N-((1R)-1-(4-(5-(5-(5-(2-(5-(2,6-dioxopiperidin-3-yl)-6-methylpyridin-2-yl)ethyl)hexahydropyrrolo[3,4-c]pyrrol-2(1H)-yl)pyridin-2-yl)-1H-pyrazolo[3,4-b]pyridin-3-yl)-2-methylphenyl)ethyl)-1,2,4-oxadiazole-3-carboxamide] | 23.6 nM
Cc1cc(-c2n[nH]c3ncc(-c4ccc(N5CCN(CCC6CCN(c7ccc(C8CCC(=O)NC8=O)c(F)c7)CC6)CC5)cc4)cc23)ccc1CNC(=O)c1noc(C(C)(C)C)n1 (stereo not drawn) [Example 48, 5-(tert-butyl)-N-(4-(5-(4-(4-(2-(1-(4-(2,6-dioxopiperidin-3-yl)-3-fluorophenyl)piperidin-4-yl)ethyl)piperazin-1-yl)phenyl)-1H-pyrazolo[3,4-b]pyridin-3-yl)-2-methylbenzyl)-1,2,4-oxadiazole-3-carboxamide] | 4.76 nM
Cc1cc(CCN2CC3CC2CN3c2ccc(-c3cnc4[nH]nc(-c5ccc([C@@H](C)NC(=O)c6noc(C(C)(C)C)n6)c(C)c5)c4c3)nc2)ncc1C1CCC(=O)NC1=O (stereo partly drawn) [Example 173, 5-(tert-butyl)-N-((1R)-1-(4-(5-(5-(5-(2-(5-(2,6-dioxopiperidin-3-yl)-4-methylpyridin-2-yl)ethyl)-2,5-diazabicyclo[2.2.1]heptan-2-yl)pyridin-2-yl)-1H-pyrazolo[3,4-b]pyridin-3-yl)-2-methylphenyl)ethyl)-1,2,4-oxadiazole-3-carboxamide] | > 2000 nM
Cc1cc(-c2n[nH]c3ncc(-c4ccc(N5CCN(CC6CCN(c7ccc(N8CCC(=O)NC8=O)c(C)c7)CC6)CC5)cc4)cc23)ccc1[C@@H](C)NC(=O)c1nc(C(C)(C)C)no1 [Example 98, (R)-3-(tert-butyl)-N-(1-(4-(5-(4-(4-((1-(4-(2,4-dioxotetrahydropyrimidin-1(2H)-yl)-3-methylphenyl)piperidin-4-yl)methyl)piperazin-1-yl)phenyl)-1H-pyrazolo[3,4-b]pyridin-3-yl)-2-methylphenyl)ethyl)-1,2,4-oxadiazole-5-carboxamide] | 2.68 nM
Cc1c(CNC(=O)c2nc(C(C)(C)C)no2)ccc(-c2n[nH]c3ncc(-c4ccc(C5CCN(CC6CCN(c7ccc(N8CCC(=O)NC8=O)cc7)CC6)CC5)cc4)cc23)c1F [Example 219, 3-(tert-butyl)-N-(4-(5-(4-(1-((1-(4-(2,4-dioxotetrahydropyrimidin-1(2H)-yl)phenyl)piperidin-4-yl)methyl)piperidin-4-yl)phenyl)-1H-pyrazolo[3,4-b]pyridin-3-yl)-3-fluoro-2-methylbenzyl)-1,2,4-oxadiazole-5-carboxamide] | 2.23 nM
Cc1cc(-c2n[nH]c3ncc(-c4ccc(N5CCN(CCCOc6ccc(NC7CCC(=O)NC7=O)c(F)c6)CC5)cc4)cc23)ccc1[C@@H](C)NC(=O)c1noc(C(C)(C)C)n1 (stereo partly drawn) [Example 142, 5-(tert-butyl)-N-((1R)-1-(4-(5-(4-(4-(3-(4-((2,6-dioxopiperidin-3-yl)amino)-3-fluorophenoxy)propyl)piperazin-1-yl)phenyl)-1H-pyrazolo[3,4-b]pyridin-3-yl)-2-methylphenyl)ethyl)-1,2,4-oxadiazole-3-carboxamide] | 6.15 nM
Cc1cc(-c2n[nH]c3ncc(-c4ccc(N5CCN(CCc6ccc([C@@H]7CCC(=O)NC7=O)cc6)CC5)cn4)cc23)ccc1[C@@H](C)NC(=O)c1noc(C(C)(C)C)n1 [Example 161, 5-(tert-butyl)-N—((R)-1-(4-(5-(5-(4-(4-((S)-2,6-dioxopiperidin-3-yl)phenethyl)piperazin-1-yl)pyridin-2-yl)-1H-pyrazolo[3,4-b]pyridin-3-yl)-2-methylphenyl)ethyl)-1,2,4-oxadiazole-3-carboxamide] | 5.27 nM
Cc1cc(-c2n[nH]c3ncc(-c4ccc(N5CCN(CCc6ccc(N7CCC(=O)NC7=O)nc6)CC5)cc4)cc23)ccc1[C@@H](C)NC(=O)c1noc(C(C)(C)C)n1 [Example 159, (R)-5-(tert-butyl)-N-(1-(4-(5-(4-(4-(2-(6-(2,4-dioxotetrahydropyrimidin-1(2H)-yl)pyridin-3-yl)ethyl)piperazin-1-yl)phenyl)-1H-pyrazolo[3,4-b]pyridin-3-yl)-2-methylphenyl)ethyl)-1,2,4-oxadiazole-3-carboxamide] | 56.3 nM

same assay, conditions: TMD8, maximum percentage of inhibition (degradation)

Compound | Dmax
Cc1cc(-c2n[nH]c3ncc(-c4ccc(C5CCN(CCC6CCN(c7ccc(N8CCC(=O)NC8=O)c(Cl)c7)CC6)CC5)cc4)cc23)ccc1CNC(=O)c1nc(C(C)(C)C)no1 [Example 23, 3-(tert-butyl)-N-(4-(5-(4-(1-(2-(1-(3-chloro-4-(2,4-dioxotetrahydropyrimidin-1(2H)-yl)phenyl)piperidin-4-yl)ethyl)piperidin-4-yl)phenyl)-1H-pyrazolo[3,4-b]pyridin-3-yl)-2-methylbenzyl)-1,2,4-oxadiazole-5-carboxamide] | 96%
CC(C)(C)c1noc(C(=O)NCc2ccc(-c3n[nH]c4ncc(-c5ccc(C6CCN(CCC7CCN(c8ccc(N9CCC(=O)NC9=O)c(F)c8)CC7)CC6)cc5)cc34)cc2F)n1 [Example 16, 3-(tert-butyl)-N-(4-(5-(4-(1-(2-(1-(4-(2,4-dioxotetrahydropyrimidin-1(2H)-yl)-3-fluorophenyl)piperidin-4-yl)ethyl)piperidin-4-yl)phenyl)-1H-pyrazolo[3,4-b]pyridin-3-yl)-2-fluorobenzyl)-1,2,4-oxadiazole-5-carboxamide] | 96.4%
